# What was measured:
# Format in all cases: cell-based
# [1] = test system: MCF-7 cells; experiment: Western blot of protein phosphorylation in MCF-7 cells
# Procedure: (A) A77 1726 induces MAP kinase activation in A375 cells cultured in 10% fetal bovine serum. A375 cells were seeded in a 6-well plate overnight and then stimulated with various concentrations of A77 1726 or PLX 4720 (1 μM) for 2 hr. Cells were harvested and analyzed for MAP kinase activation by anti-phospho-ERK1/2 antibody. The membrane was stripped and re-probed with anti-ERK1/2 antibody. (B) Lack of the feedback activation of the MAP and PI-3 kinase pathways in BT-20 cells. BT20 cells seeded in 6-well plates were starved in DMEM medium containing 05% EBS for 2 hr and treated with A77 1726 (0, 50 or 100 μM), Cells were harvested and analyzed for protein phosphorylation by specific antibodies as indicated. Protein loading was monitored by stripping membrane and re-probing with antibodies against non-phosphorylated proteins. (C) Strong feedback activation of the PI-3 kinase pathway and weak feedback activation of the MAP kinase pathway in MCF-7 cells by A77 1726 and rapamycin. […] Cells were harvested and analyzed for protein phosphorylation with the indicated antibodies. […] Cells were harvested and analyzed for protein phosphorylation by specific antibodies as indicated. Protein loading was monitored by stripping membrane and re-probing with antibodies against nonphosphorylated proteins. […]
# [2] = test system: A375 cells; experiment: Cell cycle analysis (propidium iodine, flow cytometer); details: A375 cells, A77 1726 at 50 μM, 24 hr
# Procedure: (A) Ability of uridine to relieve the cell cycle arrest in the S phase. A375 cells grown in 6-well plates were treated with the indicated concentration of A771726 with or without uridine (200 μM) for 24 hr. Cell cycle was analyzed in a flow cytometer as described in Materials and Methods. (B) Effect of the MAP kinase pathway inhibitors on A77 1726-mediated cell cycle arrest in the S phase. A375 cells were treated with A771726 (100 μM) in the absence or presence of 0.1% DMSO, […] (1 μM), U0126 (10 μM), PD98059 (10 for 24 hr. Single cell suspensions were prepared and analyzed for cell cycle in a flow cytometer. (C) Effect of the PI-3 kinase pathway inhibitors and their effect on A77 1726-mediated cell cycle arrest. A375 cells were treated with A77 1726 (100 μM), rapamycin (20 nM), and/or LY294002 (10 μM). After incubation for 24 hr, cells were harvested and analyzed for cell cycle progress.
# Cells were grown in complete RPMI1640 medium with 10% fetal bovine serum in 6-well plates. Upon 60% confluence, the cells were treated with vehicle or with indicated concentrations of A77 1726 or various inhibitors as indicated for 24 hr. Cells were pulsed with 10 μM BrdU for 2 hr. Cells were harvested, denatured with 2N HCl for 5 min at room temperature followed by neutralization with 0.1M borate buffer (pH 8.5). After washing and blocking with normal mouse serum, the cells were stained with an Alexa Fluor 488-conjugated anti-BrdU monoclonal antibody (BD Bioscience), followed by analysis in a flow cytometer. Alexa Fluor 488-conjugated mouse IgG was included as a control. For cell cycle analysis, the cells were harvested and fixed with 2 ml cold 70% ethanol in PBS overnight at 4° C. Fixed cells were then washed 3 times with PBS, treated with RNaseA (100 μg/ml in 0.5 ml PBS). After incubation at room temperature for 30 min, cells were stained with 2.5 μl propidium iodine (10 mg/ml.) and immediately analyzed for DNA content in a flow cytometer.
# [3] = test system: cyclin D1 expression; experiment: Cyclin D1 expression in A375 cells; design: dose or concentration left out as unconfirmed; details: A375 cells, 24, 48 and 72 hours; time-dependent
# Procedure: FIG. 13 illustrates inhibition of […]) expression by A 77 1726.
# S6K 1 has been implicated in playing an important role in regulating expression of cyclin D1. Cyclin D1 expression was tested in the presence of A 77 1726. A375 cells were treated with […] A 77 1726 for 0, 24, 48 and 72 hours.
smiles,measurement,setting,value
C/C(O)=C(\C#N)C(=O)Nc1ccc(C(F)(F)F)cc1 [A77 1726],effect on ERK phosphorylation,[1],slightly induced
same,effect on S6^S235/236 phosphorylation,[1],Inhibition
same,effect on cell cycle,[2],sufficient to arrest cell cycle in the S phase
same,effect on cyclin D1 expression,[3],inhibited

# — patent publication US20140121235A1, “Method for Treating S6K-Overexpressing Cancers” (Rush University Medical Center, priority 2012, published 2014)
